Molecular target: GSK3β (Homo sapiens, UniProt P49841)
Assay: GSK3beta assay (SPA, phosphorylation of biotinylated phosphorylated CREB peptide, ATP-P33)
Assay type: biochemical
Details: -log IC50 (M); 25° C., 19 nM GSK3β, 5 μM biotinylated phosphorylated CREB peptide, 1 μM ATP, one hour
Method: GSK3beta assays were performed at 25° C. in a 100 μl reaction volume of 25 mM Tris (pH 7.4) containing 10 mM MgCl2, 1 mM DTT, 0.1 mg/ml BSA, 5% glycerol and containing 19 nM GSK3β, 5 μM biotinylated phosphorylated CREB peptide, 1 μM ATP, 2 nM ATP-P^33 and a suitable amount of a test compound of formula (I) or (I′). After one hour, the reaction was terminated by adding 70 μl of Stop mix (1 mM ATP, 18 mg/ml streptavidin coated PVT SPA bead pH 11.0). The beads to which the phosphorylated CREB peptide is attached were allowed to settle for 30 minutes and the radioactivity of the beads was counted in a microtiterplate scintillation counter and compared with the results obtained in a control experiment (without the presence of a test compound) in order to determine the percentage of GSK3β, inhibition. The IC50 value, i.e. the concentration (M) of the test compound at which 50% of GSK3, is inhibited, was calculated from the dose response curve obtained by performing the above-described GSK3β assay in the presence of different amounts of the test compound.
Table 5 lists pIC50 values (-log IC50 (M)) obtained in the above-described test for the present compounds.

GSK3β, sequence (P49841 whole entry, species assumed): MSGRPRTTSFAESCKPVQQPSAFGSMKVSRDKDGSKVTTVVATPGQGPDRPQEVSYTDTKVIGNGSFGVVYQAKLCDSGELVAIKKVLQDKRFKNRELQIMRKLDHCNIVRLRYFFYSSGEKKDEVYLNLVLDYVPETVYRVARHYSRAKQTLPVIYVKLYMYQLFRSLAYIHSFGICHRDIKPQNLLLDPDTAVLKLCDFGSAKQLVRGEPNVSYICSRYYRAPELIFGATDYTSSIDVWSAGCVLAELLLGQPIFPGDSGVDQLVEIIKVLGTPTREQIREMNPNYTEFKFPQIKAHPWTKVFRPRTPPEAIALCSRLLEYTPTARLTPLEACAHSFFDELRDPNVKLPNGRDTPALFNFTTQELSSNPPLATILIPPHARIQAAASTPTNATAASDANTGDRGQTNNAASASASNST

SMILES	IC50
Cc1cc(C)c(Nc2ccnc(Nc3ccc4[nH]ncc4c3)n2)c(C)c1 [Compound 2, N^2-(1H-indazol-5-yl)-N^4-(2,4,6-trimethylphenyl)-2,4-pyrimidinediamine]	5.25e-07 M
N#Cc1ccc(Nc2nccc(C(=O)N3CCNCC3)n2)cc1OCc1ccccc1 [Compound 4]	2.95e-06 M
Cn1ccnc1-c1ccnc(Nc2ccc(C#N)c(OCc3ccccc3)c2)n1 [Compound 6, 4-[[4-(1-methyl-1H-imidazol-2-yl)-2-pyrimidinyl]amino]-2-(phenylmethoxy)-benzonitrile]	9.77e-08 M
Cc1cc(C)c(Nc2ccnc(Nc3ccc4c(c3)OCO4)n2)c(C)c1 [Compound 17, N^2-benzo[1,3]dioxol-5-yl-N^4(2,4,6-trimethyl-phenyl)-2,4-pyrimidinediamine]	5.01e-06 M
Cc1cc(C)c(Nc2ccnc(Nc3ccc4ncccc4c3)n2)c(C)c1 [Compound 20, N^2-quinolin-6-yl-N-4-(2,4,6-trimethyl-phenyl)-2,4-pyrimidinediamine]	3.63e-06 M
N#Cc1ccc(Nc2nccc(NCc3cccs3)n2)cc1 [Compound 22, 4-[4-[(thiophen-2-ylmethyl)-amino]-pyrimidin-2-ylamino]-benzonitrile]	1.82e-06 M
CC1(C)OCC(CNc2ccnc(Nc3ccc(C#N)cc3)n2)O1 (stereo not shown) [Compound 24]	4.37e-06 M
CCN1CCCC1CNc1ccnc(Nc2ccc(C#N)cc2)n1 (stereo not shown) [Compound 25]	1.91e-06 M
N#Cc1ccc(Nc2nccc(NCc3ccco3)n2)cc1 [Compound 26, 4-[4-[(furan-2-ylmethyl)-amino]-pyrimidin-2-ylamino]-benzonitrile]	1.55e-06 M
Cn1ccnc1-c1ccnc(Nc2ccc(C#N)cc2)n1 [Compound 33, 4-[[4-(1-methyl-1H-imidazol-2-yl)-2-pyrimidinyl]amino]-benzonitrile]	7.76e-08 M

Reference: patent publication US7514445B2, “Heteroaryl amines as glycogen synthase kinase 3β inhibitors (GSK3 inhibitors)” (Janssen Pharmaceutica N.V., priority 2001, dated 2009)
